Earlier results in patent US20040072765A1, “Cardiovascular and bone treatment using isoflavones” (Novogen Research Pty Ltd., priority 1999, published 2004).

Experiments:
[1] = low doses, rats
[2] = men and women

Row | SMILES | cortical and trabecular bone density [1] | increase in HDL levels [2]
1 | O=c1c(-c2ccc(O)cc2)coc2cc(O)cc(O)c12 [Genistein, genistein] | increased | 
2 | CCOC(=O)C(C)(C)Oc1ccc(Cl)cc1 [clofibrinate] |  | about 10%
